Experimental data: US12544356B2, “Combination of a chromene compound and a second active agent” (EUCLISES PHARMACEUTICALS, INC., priority 2016, dated 2026)

Experiments:
prostaglandin E2 (PGE2) = experiment: CT26 tumoral PGE-2 (Example 6); assay type: in vivo, Female Harlan Balb/c mice (BALB/cAnNHsd); settings: 10 mg/kg (Group 8)
Method: (§1) CT26 murine colon carcinoma cells were prepared as in Example 2. Female Harlan Balb/c mice (BALB/cAnNHsd) were inoculated with 5×10^5 CT26 cells suspended in PBS (200 μL) subcutaneously high in the axilla (just under the fore limb). All mice were sorted into study groups based on caliper measurement estimation of tumor burden on Day 8 when the mean tumor burden for all animals was approximately 79 mm^3 (range of group means, 75-83 mm^3).

[1] = tested on: HT-29 xenograft colon carcinoma model; experiment: HT-29 xenograft tumor volume, Compound A01 vs celecoxib (Example 5); assay type: in vivo, CB17SCID mice; settings: 10 mg/kg oral daily
Method: (§2) HT-29 cells were prepared and implanted by standard methods using the same procedure as Example 1.
(§3) 42 CB17SCID mice were implanted with 2.5×10^6 HT-29 cells.
(§4) Mouse weight and tumor volume measurements were taken on days 0, 3, 6, 9, 12, 15, 18, 21, and 22 following randomization. After 22 days dosing, the blood from each animal was collected at 2 hours and 6 hours post dose.

PGE-2 = experiment: Tumoral PGE-2 in HT-29 tumors (Example 5); assay type: in vivo, CB17SCID mice; settings: HT-29 tumor, day 24; 10 mg/kg
Method: as §2, §3, §4

[2] = tested on: CT26.WT murine colon carcinomas; experiment: CT26 tumor volume, Compound A01 vs celecoxib (Example 6); assay type: in vivo, Female Harlan Balb/c mice (BALB/cAnNHsd)
Method: as §1

[3] = Intratumoral concentration of Compound A01 and erlotinib (Example 1); assay type: in vivo, CB17SCID male mice; settings: male, CB17SCID, mouse, tumor (HT-29 xenograft), oral, 50 mg/kg
Method: (§5) 48 CB17SCID male mice were implanted with 2.5×10^6 HT29 cells. Growth of the tumor was calculated for each animal using a caliper and the equation: V=π×ab^2/6.
(§6) Mouse weight and tumor volume measurements were taken on days 0, 3, 6, 9, 12, 15, 18, 21, and 22 following randomization.

[4] = Body weight in HT-29 xenograft study (Example 1); assay type: in vivo, CB17SCID male mice; settings: erlotinib 50 mg/kg oral daily
Method: as §5, §6

PGE2 = experiment: Intratumoral concentration of PGE2 in HT-29 tumors (Example 1); assay type: in vivo, CB17SCID male mice; settings: HT-29 tumor, day 24; erlotinib 50 mg/kg
Method: as §5, §6

[5] = Plasma concentration of Compound A01 and erlotinib (Example 1); assay type: in vivo, CB17SCID male mice; settings: male, CB17SCID, mouse, plasma, oral, 50 mg/kg
Method: as §5, §6

[6] = tested on: HT-29 xenograft murine colon carcinoma model; experiment: HT-29 xenograft tumor growth, Compound A01 with erlotinib (Example 1); assay type: in vivo, CB17SCID male mice; settings: for Tumor Volume: erlotinib 50 mg/kg oral daily
Method: HT-29 cells were cultured in medium for one week. Following digestion cells were centrifuged for 3-5 minutes at 800-1500 rpm. Cells were washed with PBS and centrifuged again under the same condition. Cells were then suspended in PBS to a final concentration of […]. 200 μL of the HT-29 cell suspension were subcutaneously injected into the mice left forelimb axillary (2.5×10^6 HT-29 cells per mouse).
as §5, §6

Which results are given for `Cc1ccc(-c2cc(C(F)(F)F)nn2-c2ccc(S(N)(=O)=O)cc2)cc1` [Celecoxib, celecoxib, reference compound]?
Mean PGE-2 Concentration (CT26 tumoral) (prostaglandin E2 (PGE2)): 1140 ng/g; Tumor Volume ([1]; Day 0): 67.9 mm^3; Tumor Volume ([1]; Day 3): 81.8 mm^3; Tumor Volume ([1]; Day 6): 143.4 mm^3; Tumor Volume ([1]; Day 9): 244.5 mm^3; Tumor Volume ([1]; Day 12): 285.5 mm^3; Tumor Volume ([1]; Day 15): 380.9 mm^3; Tumor Volume ([1]; Day 18): 541.2 mm^3; Tumor Volume ([1]; Day 21): 736.1 mm^3; Tumor Volume ([1]; Day 22): 803.4 mm^3; Mean PGE-2 (tumoral) (PGE-2): 233.3 ± 267.2 ng/g; CT26 Tumor Volume ([2]; Day 8, 10 mg/kg): 79 ± 4 mm^3; CT26 Tumor Volume ([2]; Day 8, 30 mg/kg): 76 ± 5 mm^3; CT26 Tumor Volume ([2]; Day 10, 10 mg/kg): 134 ± 11 mm^3; CT26 Tumor Volume ([2]; Day 10, 30 mg/kg): 131 ± 17 mm^3; CT26 Tumor Volume ([2]; Day 13, 10 mg/kg): 369 ± 42 mm^3; CT26 Tumor Volume ([2]; Day 13, 30 mg/kg): 415 ± 66 mm^3; CT26 Tumor Volume ([2]; Day 15, 10 mg/kg): 594 ± 84 mm^3; CT26 Tumor Volume ([2]; Day 15, 30 mg/kg): 685 ± 93 mm^3; CT26 Tumor Volume ([2]; Day 17, 10 mg/kg): 904 ± 92 mm^3; CT26 Tumor Volume ([2]; Day 17, 30 mg/kg): 1046 ± 144 mm^3

What does the source list for `C#Cc1cccc(Nc2ncnc3cc(OCCOC)c(OCCOC)cc23)c1` [Erlotinib, erlotinib, reference compound]?
concentration at 24 day [3]: < 80000 ng/g; Body weight ([4]; Day 0): 22.4 g; Body weight ([4]; Day 3): 22.4 g; Body weight ([4]; Day 15): 20.5 g; Body weight ([4]; Day 21): 21.0 g; Intratumoral concentration of PGE2 (mean ± SD) (PGE2): 160.6 ± 89.5 µg/g; concentration at 2 h [5]: 3340 ± 1590 ng/mL; concentration at 6 h [5]: 1260 ± 520 ng/mL; Tumor Volume ([6]; Day 0): 73.7 mm^3; Tumor Volume ([6]; Day 3): 156.9 mm^3; Tumor Volume ([6]; Day 6): 192.0 mm^3; Tumor Volume ([6]; Day 9): 241.0 mm^3; Tumor Volume ([6]; Day 12): 299.1 mm^3; Tumor Volume ([6]; Day 15): 394.5 mm^3; Tumor Volume ([6]; Day 18): 641.1 mm^3; Tumor Volume ([6]; Day 21): 691.4 mm^3; Tumor Volume ([6]; Day 22): 774.8 mm^3; suppression of tumor growth compared to vehicle ([6]; erlotinib alone (50 mg/kg)): 38%
